Results from patent US20250059156A1, “THERAPEUTIC ALKALOID COMPOUNDS” (Sensorium Therapeutics, Inc., priority 2022, published 2025).

Tests used:
[1] = in vivo; cited from earlier work
[2] = tested on: C57/Bl6 mice; assay: Behavioral evaluation assay (SmartCube test); type: in vivo; details: FIG. 1
Protocol: The CNS-like activity of test compounds after acute intraperitoneal administration was evaluated in naïve C57/Bl6 mice using the SmartCube® test.
Male C57/Bl6 mice from Taconic Laboratories (Germantown, NY) were used. Upon receipt, mice were group-housed in Optimice® ventilated cages with 4 mice per cage. Mice were acclimated to the colony room for at least one week prior to test, and subsequently tested at approximately 8-9 weeks of age. All animals were examined, handled, and weighed prior to initiation of the study to assure adequate health and suitability and to minimize nonspecific stress associated with manipulation. During the course of the study, 12/12 light/dark cycles were maintained. The room temperature was 20-23° C. with a relative humidity maintained between 30-70%. Chow and water were provided ad libitum for the duration of the study.
Test compounds were formulated in 5% Pharmasolve, 30% P3 (1:1:1 PEG200, PEG400, propylene glycol) and 65% saline. […]
For class and subclass analysis, a reference dataset has been built from hundreds of drug doses in multiple drug classes plus a control group. […] Multiple analyses of the data was performed to quantitatively produce independent predictions of drug class, and drug subclass. The behavioral signatures of the test drug were evaluated using these classifiers to predict potential therapeutic utility.

[3] = molecular target: PDE4C1 (Homo sapiens (Human), UniProt Q08493); assay: PDE4 percent inhibition assay; type: biochemical; details: 10 μM
Chain of PDE4C1 (Q08493 whole entry): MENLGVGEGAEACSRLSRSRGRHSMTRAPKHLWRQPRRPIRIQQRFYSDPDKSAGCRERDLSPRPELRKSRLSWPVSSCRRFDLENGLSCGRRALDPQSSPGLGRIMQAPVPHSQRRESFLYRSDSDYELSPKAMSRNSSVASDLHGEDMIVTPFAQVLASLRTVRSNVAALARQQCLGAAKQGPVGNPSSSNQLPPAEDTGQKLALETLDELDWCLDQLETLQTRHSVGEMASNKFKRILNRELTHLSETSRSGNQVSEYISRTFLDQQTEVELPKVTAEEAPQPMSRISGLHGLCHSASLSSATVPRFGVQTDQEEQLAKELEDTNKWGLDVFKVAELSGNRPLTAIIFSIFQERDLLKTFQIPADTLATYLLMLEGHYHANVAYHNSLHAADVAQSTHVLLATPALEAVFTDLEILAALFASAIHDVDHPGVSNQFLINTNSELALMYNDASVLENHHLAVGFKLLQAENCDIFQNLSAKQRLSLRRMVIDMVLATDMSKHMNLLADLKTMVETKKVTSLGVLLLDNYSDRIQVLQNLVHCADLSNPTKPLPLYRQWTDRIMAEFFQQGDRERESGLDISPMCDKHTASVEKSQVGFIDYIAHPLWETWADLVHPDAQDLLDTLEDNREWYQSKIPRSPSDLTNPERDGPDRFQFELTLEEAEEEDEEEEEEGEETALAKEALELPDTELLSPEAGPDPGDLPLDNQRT
Protocol: (§1) PDE4 assay kit (BPS Bioscience, San Diego, CA), as described below.
(§2) • 1) Dilute 20 μM FAM-Cyclic-3′, 5′-AMP stock 100-fold with PDE buffer to make a 200 nM solution. Make only sufficient quantity needed for the assay; store remaining 20 μM stock solution in aliquots at −20° C. • 2) Add 25 μl of FAM-Cyclic-3′,5′-AMP (200 nM) to each well designated “Positive Control”, “Test Inhibitor”, and “Substrate Control”. • 3) Add 20 μl of PDE assay buffer to each well designated “Substrate Control” and 45 μl of PDE assay buffer to each well designated “Blank”. • 4) Add 5 μl of inhibitor solution to each well designated “Test Inhibitor”. For the wells labeled “Positive Control”, “Substrate Control” and “Blank”, add 5 μl of the same solution without inhibitor (inhibitor buffer). • 5) Thaw PDE on ice. Upon first thaw, briefly spin tube containing enzyme to recover the full contents of the tube. • 6) Dilute PDE4 in PDE buffer to 7.5 pg/μl (0.15 ng/reaction)*. Initiate reaction by adding 20 μl of PDE4 (7.5 pg/μl) to the wells designated “Positive Control” and “Test Inhibitor.” • 7) Incubate at room temperature for 1 hour.
(§3) • 1) Mix binding agent thoroughly and dilute binding agent 1:100 with binding agent diluent. • 2) Add 100 μl diluted binding agent to each microwell. Incubate at room temperature for 1 hour with slow shaking. • 3) Read the fluorescent polarization of the sample in a microtiter-plate reader equipped for the measurement of fluorescence polarization, capable of excitation at wavelengths ranging from 485±5 nm and detection of emitted light ranging from 528±10 nm. Blank value is subtracted from all other values.
(§4) 100 µM dilutions of the test compounds were prepared in assay buffer (10% DMSO concentration) and 5 μl of the dilution was added to a 50 μl reaction so that the final concentration of DMSO is 1% in all of reactions.
(§5) The enzymatic reactions were conducted at room temperature for 60 minutes in a 50 μl mixture containing PDE assay buffer, 100 nM FAM-cAMP, a PDE enzyme and the test compound.
(§6) After the enzymatic reaction, 100 Is of a binding solution (1:100 dilution of the binding agent with the binding agent diluent) was added to each reaction and the reaction was performed at room temperature for 60 minutes.
(§7) Fluorescence intensity was measured at an excitation of 485 nm and an emission of 528 nm using a Tecan Infinite M1000 microplate reader.

[4] = molecular target: PDE4A1A (Homo sapiens (Human), UniProt P27815); assay: PDE4 percent inhibition assay; type: biochemical; details: 10 μM
Chain of PDE4A1A (P27815 other isoform, or with tags, fused parts or gaps): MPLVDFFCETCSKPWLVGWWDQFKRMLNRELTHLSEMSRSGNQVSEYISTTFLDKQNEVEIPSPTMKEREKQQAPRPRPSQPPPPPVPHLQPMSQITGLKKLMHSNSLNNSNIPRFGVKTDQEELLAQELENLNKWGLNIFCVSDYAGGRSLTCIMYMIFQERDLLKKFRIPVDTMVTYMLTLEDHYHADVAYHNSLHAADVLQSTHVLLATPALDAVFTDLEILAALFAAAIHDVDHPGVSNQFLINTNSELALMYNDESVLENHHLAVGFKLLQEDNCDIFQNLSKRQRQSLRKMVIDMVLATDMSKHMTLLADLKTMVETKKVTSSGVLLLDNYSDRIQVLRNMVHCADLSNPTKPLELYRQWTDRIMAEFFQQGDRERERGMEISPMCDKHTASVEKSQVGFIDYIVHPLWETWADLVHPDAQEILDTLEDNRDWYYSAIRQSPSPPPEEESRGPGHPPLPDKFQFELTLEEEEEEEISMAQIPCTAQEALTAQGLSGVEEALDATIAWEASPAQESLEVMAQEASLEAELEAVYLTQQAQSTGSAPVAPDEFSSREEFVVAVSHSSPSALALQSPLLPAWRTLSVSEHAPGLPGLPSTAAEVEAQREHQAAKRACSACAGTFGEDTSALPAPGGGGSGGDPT
Protocol: as §1, §2, §3, §4, §5, §6, §7

[5] = molecular target: PDE4D2 (Homo sapiens (Human), UniProt Q08499); assay: PDE4 percent inhibition assay; type: biochemical; details: 10 μM
Chain of PDE4D2 (Q08499 303-809, change not shown): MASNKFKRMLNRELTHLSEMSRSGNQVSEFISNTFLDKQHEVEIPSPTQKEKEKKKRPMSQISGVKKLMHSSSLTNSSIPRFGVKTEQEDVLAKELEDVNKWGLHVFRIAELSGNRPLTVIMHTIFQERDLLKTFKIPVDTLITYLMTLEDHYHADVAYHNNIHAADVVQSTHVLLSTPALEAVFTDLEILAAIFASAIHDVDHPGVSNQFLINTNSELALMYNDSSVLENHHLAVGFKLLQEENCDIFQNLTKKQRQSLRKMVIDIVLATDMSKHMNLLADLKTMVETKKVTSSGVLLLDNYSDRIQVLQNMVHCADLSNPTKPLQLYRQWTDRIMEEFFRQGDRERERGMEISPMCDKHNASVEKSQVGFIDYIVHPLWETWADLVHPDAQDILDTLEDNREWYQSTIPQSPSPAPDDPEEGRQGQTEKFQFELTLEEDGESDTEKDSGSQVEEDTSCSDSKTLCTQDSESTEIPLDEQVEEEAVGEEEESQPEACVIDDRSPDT
Protocol: as §1, §2, §3, §4, §5, §6, §7

[6] = molecular target: PDE4B2 (Homo sapiens (Human), UniProt Q07343); assay: PDE4 percent inhibition assay; type: biochemical; details: 10 μM
Chain of PDE4B2 (Q07343 other isoform, or with tags, fused parts or gaps): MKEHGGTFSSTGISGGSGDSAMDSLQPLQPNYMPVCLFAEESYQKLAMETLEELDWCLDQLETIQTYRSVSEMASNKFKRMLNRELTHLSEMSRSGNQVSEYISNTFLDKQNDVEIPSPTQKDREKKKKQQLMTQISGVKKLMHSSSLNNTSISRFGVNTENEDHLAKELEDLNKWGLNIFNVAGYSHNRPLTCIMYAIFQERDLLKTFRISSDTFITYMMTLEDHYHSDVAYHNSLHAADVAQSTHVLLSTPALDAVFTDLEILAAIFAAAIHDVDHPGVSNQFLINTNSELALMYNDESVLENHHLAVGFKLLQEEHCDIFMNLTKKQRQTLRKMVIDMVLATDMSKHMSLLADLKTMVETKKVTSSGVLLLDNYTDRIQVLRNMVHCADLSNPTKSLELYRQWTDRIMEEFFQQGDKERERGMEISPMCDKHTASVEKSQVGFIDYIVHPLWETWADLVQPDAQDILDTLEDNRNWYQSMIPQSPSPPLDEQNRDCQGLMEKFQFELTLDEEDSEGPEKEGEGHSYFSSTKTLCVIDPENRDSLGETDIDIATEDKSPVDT
Protocol: as §1, §2, §3, §4, §5, §6, §7

[7] = molecular target: SERT (Homo sapiens (Human), UniProt P31645); assay: SERT inhibition assay (Neurotransmitter Transporter Fluorescence assay); type: cell-based; details: class symbols; legend in nM/micromolar
Chain of SERT (P31645 whole entry, species assumed): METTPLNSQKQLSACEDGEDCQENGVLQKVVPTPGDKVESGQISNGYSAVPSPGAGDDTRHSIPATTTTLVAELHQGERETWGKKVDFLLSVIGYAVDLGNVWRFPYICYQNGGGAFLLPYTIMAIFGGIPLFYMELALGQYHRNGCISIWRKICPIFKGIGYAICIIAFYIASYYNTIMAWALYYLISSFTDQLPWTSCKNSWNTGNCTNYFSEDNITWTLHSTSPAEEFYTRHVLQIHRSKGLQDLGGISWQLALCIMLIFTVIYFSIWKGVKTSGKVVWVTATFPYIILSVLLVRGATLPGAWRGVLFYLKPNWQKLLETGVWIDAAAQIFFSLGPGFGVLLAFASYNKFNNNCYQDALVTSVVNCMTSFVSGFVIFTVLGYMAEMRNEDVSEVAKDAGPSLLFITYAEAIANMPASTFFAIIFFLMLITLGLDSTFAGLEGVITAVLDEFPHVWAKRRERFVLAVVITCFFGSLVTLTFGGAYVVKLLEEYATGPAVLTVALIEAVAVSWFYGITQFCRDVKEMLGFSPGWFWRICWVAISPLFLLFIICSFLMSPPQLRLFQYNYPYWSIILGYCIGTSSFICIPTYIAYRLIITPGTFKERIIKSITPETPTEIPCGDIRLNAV
Protocol: SERT inhibition was measured using a Neruotransmitter Transportation Fluorescence assay. Briefly, stable 5HHH cells were prepared in a 384 microwell plate. Compounds were prepared by in assay buffer (20 mM HEPES, 0.1% BSA). The compounds were added to the plated cells and incubated for 30 minutes at 37° C. 25 μL of dye solution (Molecular Devices Neurotransmitter Transporter Uptake Assay Kit) was added per well and incubated for 30 minutes at 37° C. The plates were then read on a plate reader.

[8] = molecular target: 5-HT transporter (SERT) (Homo sapiens (Human), UniProt P31645); details: concentration response curve; cited from earlier work

SMILES | half-life in plasma [1] | behavioral phenotype compared to Compound 001 [2] | PDE4 Isoform % Inhibition @ 10 μM PDE4C1 [3] | PDE4 Isoform % Inhibition @ 10 μM PDE4A1A [4] | PDE4 Isoform % Inhibition @ 10 μM PDE4D2 [5] | PDE4 Isoform % Inhibition @ 10 μM PDE4B2 [6] | IC50 [7] [nM] | 5-HT transporter (SERT) nH [8]
COc1ccc([C@@]23CCC(=O)C[C@@H]2N(C)CC3)cc1OC [(−) mesembrine] | less than 2 hours | – | – | – | – | – | – | –
COc1ccc([C@@]23CC[C@@H](O)C[C@@H]2N(C)CC3)cc1OC [Compound 018, (3aS,6R,7aS)-3a-(3,4-dimethoxyphenyl)-1-methyloctahydro-1H-indol-6-ol] | – | different behavioral phenotype classification | – | – | – | – | – | –
COc1ccc([C@]23CC[C@H](n4ccc(C(F)(F)F)n4)C[C@H]2N(C)CC3)cc1OC [Compound 122] | – | – | D (D if the percent inhibition is less than 30%) | D (D if the percent inhibition is less than 30%) | D (D if the percent inhibition is less than 30%) | D (D if the percent inhibition is less than 30%) | > 1000 | –
COc1ccc([C@]23CCN(C)[C@H]2[C@H]2CC[C@@H]3CC2=O)cc1OC [Compound 203] | – | – | C (C is the percent inhibition is 30-50%) | D (D if the percent inhibition is less than 30%) | B (B if the percent inhibition is 50-70%) | B (B if the percent inhibition is 50-70%) | 50 to 100 | –
COc1ccc([C@]23CCN(C)[C@H]2[C@@H]2CC[C@H]3CC2=O)cc1OC [Compound 204] | – | – | A (A if the % inhibition is greater than or equal to 70%) | A (A if the % inhibition is greater than or equal to 70%) | A (A if the % inhibition is greater than or equal to 70%) | A (A if the % inhibition is greater than or equal to 70%) | 100 to 500 | –
COc1ccc([C@@]23CCN(C)[C@@H]2CC(=O)C[C@@H]3c2ccccc2)cc1OC [Compound 206] | – | – | B (B if the percent inhibition is 50-70%) | A (A if the % inhibition is greater than or equal to 70%) | A (A if the % inhibition is greater than or equal to 70%) | A (A if the % inhibition is greater than or equal to 70%) | > 1000 | –
COc1ccc([C@]23CCN(C)[C@H]2CC(=O)C[C@H]3c2ccccc2)cc1OC [Compound 207] | – | – | B (B if the percent inhibition is 50-70%) | B (B if the percent inhibition is 50-70%) | B (B if the percent inhibition is 50-70%) | B (B if the percent inhibition is 50-70%) | > 1000 | –
COc1ccc([C@]23CCN(C)[C@H]2CC(=O)[C@H]2O[C@H]23)cc1OC [Compound 209] | – | – | A (A if the % inhibition is greater than or equal to 70%) | A (A if the % inhibition is greater than or equal to 70%) | A (A if the % inhibition is greater than or equal to 70%) | A (A if the % inhibition is greater than or equal to 70%) | < 50 | –
COc1ccc([C@@]23CCN(C)[C@@H]2CC(=O)[C@@H]2O[C@@H]23)cc1OC [Compound 210] | – | – | A (A if the % inhibition is greater than or equal to 70%) | A (A if the % inhibition is greater than or equal to 70%) | A (A if the % inhibition is greater than or equal to 70%) | A (A if the % inhibition is greater than or equal to 70%) | 100 to 500 | –
COc1ccc([C@]23CCN(C)[C@H]2[C@@H]2C[C@H]3CC2=O)cc1OC [Compound 213] | – | – | A (A if the % inhibition is greater than or equal to 70%) | A (A if the % inhibition is greater than or equal to 70%) | A (A if the % inhibition is greater than or equal to 70%) | A (A if the % inhibition is greater than or equal to 70%) | > 1000 | –
COc1ccc([C@@]23CCN(C)[C@@H]2[C@H]2C[C@@H]3CC2=O)cc1OC [Compound 214] | – | – | D (D if the percent inhibition is less than 30%) | A (A if the % inhibition is greater than or equal to 70%) | C (C is the percent inhibition is 30-50%) | C (C is the percent inhibition is 30-50%) | 100 to 500 | –
COc1ccc([C@]23CCN(C)[C@H]2[C@H]2C[C@@H]3CC2=O)cc1OC [Compound 215] | – | – | D (D if the percent inhibition is less than 30%) | D (D if the percent inhibition is less than 30%) | D (D if the percent inhibition is less than 30%) | D (D if the percent inhibition is less than 30%) | 50 to 100 | –
COc1ccc([C@@]23CCN(C)[C@@H]2[C@@H]2C[C@H]3CC2=O)cc1OC [Compound 216] | – | – | C (C is the percent inhibition is 30-50%) | D (D if the percent inhibition is less than 30%) | D (D if the percent inhibition is less than 30%) | D (D if the percent inhibition is less than 30%) | 50 to 100 | –
COc1ccc([C@]23CCN(C)[C@H]2[C@@H]2CCC[C@H]3CC2=O)cc1OC [Compound 218] | – | – | D (D if the percent inhibition is less than 30%) | D (D if the percent inhibition is less than 30%) | D (D if the percent inhibition is less than 30%) | D (D if the percent inhibition is less than 30%) | < 50 | –
COc1ccc([C@@]23CCN(C)[C@@H]2[C@H]2CCC[C@@H]3CC2=O)cc1OC [Compound 219] | – | – | B (B if the percent inhibition is 50-70%) | C (C is the percent inhibition is 30-50%) | C (C is the percent inhibition is 30-50%) | C (C is the percent inhibition is 30-50%) | 100 to 500 | –
COc1ccc([C@@]23C=CC(=O)C[C@@H]2N(C)CC3)cc1OC [Mesembrenone] | – | – | – | – | – | – | – | 1.0
